From patent publication US4232150A, “Oligosaccharide precursors to substituted O-α-D and O-β-D-multigalactopyranosyl and glucopyranosyl 1→4 and 1→6 galactopyranosyl 1→6α-D-glucopyranoses” (American Cyanamid Company, priority 1979, dated 1980)
Counter-ions that a name gives are not always drawn.

Columns and labels:
[1] = system: hereditary angioneurotic edema; settings: in vivo; cited from earlier work
human serum complement = settings: in vitro and in vivo; cited from earlier work
complement system = settings: cited from earlier work
[2] = system: late components of human complement (C3-C9); test: Test Code 035 (C3-C9 inhibitor; C-Late), lysis of EAC 142; format: cell-based; settings: serial twofold dilution assay; higher well number indicates higher activity
Description: (§1) An active inhibitor protects C2 from C1 and C4; (ii) Test Cod3 035 (3-C9 inhibitor)--This test determines the ability of the late components of human complement (C3-C9) to lyse EAC 142 in the presence of appropriate dilutions of the test compound. An active inhibitor protects EAC 142 from lysis by human C3-C9; (iii) Test Code 036 (C-Shunt inhibitor)--In this test human erythrocytes rendered fragile are lysed in autologous serum via the shunt pathway activated by cobra venom factor in the presence of appropriate dilutions of the test compound. Inhibition of the shunt pathway results in failure of lysis; (iv) Forssman Vasculitis Test--Here, the well known complement dependent lesion, Forssman vasculitis, is produced in guinea pigs by intradermal injection of rabbit anti-Forssman antiserum. The lesion is measured in terms of diameter, edema and hemorrhage and the extent to which a combined index of these is inhibited by prior intraperitoneal injection of the test compound at 200 mg/kg is then reported, unless otherwise stated; (v) Forssman Shock Test--Lethal shock is produced in guinea pigs by an i.v. injection of anti-Forssman antiserum and the harmonic mean death time of treated guinea pigs is compared with that of simultaneous controls; (vi) Complement Level Reduction Test--In this test, the above dosed guinea pigs, or others, are bled for serum and the complement level is determined in undiluted serum by the capillary tube method of U.S. Pat. No. 3,876,376 and compared to undosed control guinea pigs; (vii) Cap 50 Test--Here, appropriate amounts of the test compound are added to a pool of guinea pig serum in vitro, after which the undiluted serum capillary tube assay referred to above is run. The concentration of compound inhibiting 50% is reported;
(§2) **Activity in wells, a serial dilution assay; higher well number indicate
(§3) higher activity. The serial dilutions are twofold

[3] = system: shunt pathway activated by cobra venom factor; test: Test Code 036 (C-Shunt inhibitor), lysis of human erythrocytes by cobra venom factor; format: cell-based; settings: serial twofold dilution assay; higher well number indicates higher activity
Description: as §1, §2, §3

activated human C1 = molecular target: T1, activated human C1 (Homo sapiens, UniProt P09871); test: Test Code 026 (C1 inhibitor); format: biochemical; settings: serial twofold dilution assay; higher well number indicates higher activity
T1 construct: functional test of fluid-phase human C2 destruction in presence of C4
Description: as §1, §2, §3

T1 sequence (P09871 16-688): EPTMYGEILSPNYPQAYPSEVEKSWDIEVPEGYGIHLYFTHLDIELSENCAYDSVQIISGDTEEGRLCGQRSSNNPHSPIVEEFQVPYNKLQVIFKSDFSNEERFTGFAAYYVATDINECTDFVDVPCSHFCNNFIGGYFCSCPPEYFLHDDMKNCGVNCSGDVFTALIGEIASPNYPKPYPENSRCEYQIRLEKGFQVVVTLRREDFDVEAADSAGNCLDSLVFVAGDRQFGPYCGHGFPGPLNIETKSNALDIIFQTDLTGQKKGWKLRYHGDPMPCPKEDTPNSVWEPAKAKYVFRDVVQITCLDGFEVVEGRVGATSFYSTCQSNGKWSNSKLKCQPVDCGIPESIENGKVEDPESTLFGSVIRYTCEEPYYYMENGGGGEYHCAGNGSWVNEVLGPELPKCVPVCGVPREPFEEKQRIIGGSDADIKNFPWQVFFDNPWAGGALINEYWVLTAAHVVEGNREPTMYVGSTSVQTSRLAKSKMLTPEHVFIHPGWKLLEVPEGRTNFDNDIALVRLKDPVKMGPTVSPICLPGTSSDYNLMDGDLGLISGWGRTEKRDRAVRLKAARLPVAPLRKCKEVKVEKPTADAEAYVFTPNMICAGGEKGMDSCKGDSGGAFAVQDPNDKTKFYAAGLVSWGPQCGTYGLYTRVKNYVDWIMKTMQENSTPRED
T1 sequence (P00736 18-705 partner): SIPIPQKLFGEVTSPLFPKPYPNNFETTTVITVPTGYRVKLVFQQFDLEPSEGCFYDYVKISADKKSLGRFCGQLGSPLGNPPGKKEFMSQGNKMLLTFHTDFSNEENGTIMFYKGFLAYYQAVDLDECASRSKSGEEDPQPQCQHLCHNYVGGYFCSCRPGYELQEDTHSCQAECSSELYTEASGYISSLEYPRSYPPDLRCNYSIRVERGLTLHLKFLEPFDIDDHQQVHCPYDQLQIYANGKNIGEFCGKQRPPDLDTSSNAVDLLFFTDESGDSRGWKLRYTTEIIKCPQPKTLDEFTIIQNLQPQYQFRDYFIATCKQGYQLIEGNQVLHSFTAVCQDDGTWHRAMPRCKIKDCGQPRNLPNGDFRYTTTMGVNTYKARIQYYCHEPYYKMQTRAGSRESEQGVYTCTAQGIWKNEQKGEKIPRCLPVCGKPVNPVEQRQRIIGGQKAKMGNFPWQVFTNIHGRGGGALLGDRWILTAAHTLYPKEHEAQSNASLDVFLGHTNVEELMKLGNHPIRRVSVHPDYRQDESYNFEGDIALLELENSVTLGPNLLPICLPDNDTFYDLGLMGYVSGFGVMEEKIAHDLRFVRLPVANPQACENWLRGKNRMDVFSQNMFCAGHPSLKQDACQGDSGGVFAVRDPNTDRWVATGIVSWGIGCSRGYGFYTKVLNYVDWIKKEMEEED
T1 sequence (P02745 23-245 partner): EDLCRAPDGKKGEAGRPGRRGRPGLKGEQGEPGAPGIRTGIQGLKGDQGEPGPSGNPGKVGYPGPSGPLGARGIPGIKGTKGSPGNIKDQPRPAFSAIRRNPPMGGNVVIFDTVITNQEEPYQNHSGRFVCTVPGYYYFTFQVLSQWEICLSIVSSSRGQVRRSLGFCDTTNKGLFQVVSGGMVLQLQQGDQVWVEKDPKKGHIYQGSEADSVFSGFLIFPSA
T1 sequence (P02746 28-253 partner): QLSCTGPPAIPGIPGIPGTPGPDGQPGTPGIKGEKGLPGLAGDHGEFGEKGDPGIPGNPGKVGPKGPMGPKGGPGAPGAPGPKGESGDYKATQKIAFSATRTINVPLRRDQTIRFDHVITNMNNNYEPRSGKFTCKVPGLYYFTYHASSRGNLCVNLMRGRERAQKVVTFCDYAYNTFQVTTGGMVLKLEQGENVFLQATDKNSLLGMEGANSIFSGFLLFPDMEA
T1 sequence (P02747 29-245 partner): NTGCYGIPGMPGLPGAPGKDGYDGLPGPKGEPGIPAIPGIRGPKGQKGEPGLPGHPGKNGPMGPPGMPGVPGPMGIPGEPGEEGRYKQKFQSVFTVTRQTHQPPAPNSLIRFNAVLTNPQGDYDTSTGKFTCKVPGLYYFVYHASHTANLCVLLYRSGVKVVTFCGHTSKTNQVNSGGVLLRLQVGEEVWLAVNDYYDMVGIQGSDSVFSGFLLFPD

Compound | C-Late 035* Wells [2] | Shunt Inhibition 036* Wells [3] | C1 026* Wells (activated human C1) | further results
NCCCCCC(=O)O [epsilon-aminocaproic acid] |  |  |  | success in the treatment of hereditary angioneurotic edema [1]: used with success in the treatment of hereditary angioneurotic edema
pentosan-polysulfoester |  |  |  | anticomplementary activity on human serum, as judged by the reduction in total hemolytic complement activity (human serum complement): anticomplementary activity on human serum, both in vitro and in vivo
heparin |  |  |  | anticomplementary effect (complement system): anticomplementary effect
Nc1ccc2cc(S(=O)(=O)[O-])cc(O)c2c1N=Nc1ccc(NC(=O)Nc2ccc(N=Nc3c(N)ccc4cc(S(=O)(=O)[O-])cc(O)c34)c(S(=O)(=O)[O-])c2)cc1S(=O)(=O)[O-].[Na+].[Na+].[Na+].[Na+] [chlorazol fast pink, 3,3'-ureylenebis[6-(2-amino-8-hydroxy-6-sulfo-1-naphthylazo)benzenesulfonic acid], tetrasodium salt] |  |  |  | anticomplementary effect (complement system): anticomplementary effect
O=S(=O)(O)OC[C@H]1O[C@@H](OC[C@H]2O[C@H](OC[C@H]3OC(OS(=O)(=O)O)[C@H](OS(=O)(=O)O)[C@@H](OS(=O)(=O)O)[C@@H]3OS(=O)(=O)O)[C@H](OS(=O)(=O)O)[C@@H](OS(=O)(=O)O)[C@H]2OS(=O)(=O)O)[C@H](OS(=O)(=O)O)[C@@H](OS(=O)(=O)O)[C@@H]1O[C@H]1O[C@H](COS(=O)(=O)O)[C@@H](O[C@H]2O[C@H](COS(=O)(=O)O)[C@@H](O[C@H]3O[C@H](COS(=O)(=O)O)[C@@H](O[C@H]4O[C@H](COS(=O)(=O)O)[C@@H](O[C@H]5O[C@H](COS(=O)(=O)O)[C@@H](O[C@H]6O[C@H](COS(=O)(=O)O)[C@@H](OS(=O)(=O)O)[C@H](OS(=O)(=O)O)[C@H]6OS(=O)(=O)O)[C@H](OS(=O)(=O)O)[C@H]5OS(=O)(=O)O)[C@H](OS(=O)(=O)O)[C@H]4OS(=O)(=O)O)[C@H](OS(=O)(=O)O)[C@H]3OS(=O)(=O)O)[C@H](OS(=O)(=O)O)[C@H]2OS(=O)(=O)O)[C@H](OS(=O)(=O)O)[C@H]1OS(=O)(=O)O (stereo partly drawn) [(glc →1α,4)6 glc →1β,6 gal →1α,6 nonacosakis (H-sulfate), no] [(Glc 1α,4)6 glc 1β,6 gal 1α,6 glc nonacosakis (H-sulfate) nonacosasodium salt] | +3 Wells | +5 Wells | +9 Wells | 
O=S(=O)(O)OC[C@H]1O[C@H](OC[C@H]2O[C@@H](OC[C@H]3O[C@H](OC[C@H]4O[C@H](OS(=O)(=O)O)[C@H](OS(=O)(=O)O)[C@@H](OS(=O)(=O)O)[C@@H]4OS(=O)(=O)O)[C@H](OS(=O)(=O)O)[C@@H](OS(=O)(=O)O)[C@H]3OS(=O)(=O)O)[C@H](OS(=O)(=O)O)[C@@H](OS(=O)(=O)O)[C@@H]2OS(=O)(=O)O)[C@H](OS(=O)(=O)O)[C@@H](OS(=O)(=O)O)[C@H]1OS(=O)(=O)O [gal →1α,6 glc →1β,6 gal →1α,6 tetradecakis (H-sulfate), tetr] [Gal 1α,6 glc 1β,6 gal 1α,6 glc tetradecakis (H-sulfate), tetradecasalt with trimethylamine] | +1 Wells | +5 Wells | +9 Wells | 
NC[C@H]1CC[C@H](C(=O)O)CC1 [tranexamic acid] |  |  |  | success in the treatment of hereditary angioneurotic edema [1]: used with success in the treatment of hereditary angioneurotic edema
O=S(=O)(O)OC[C@H]1O[C@H](OC[C@H]2O[C@@H](OC[C@H]3O[C@H](OC[C@H]4O[C@H](OS(=O)(=O)O)[C@H](OS(=O)(=O)O)[C@@H](OS(=O)(=O)O)[C@@H]4OS(=O)(=O)O)[C@H](OS(=O)(=O)O)[C@@H](OS(=O)(=O)O)[C@H]3OS(=O)(=O)O)[C@H](OS(=O)(=O)O)[C@@H](OS(=O)(=O)O)[C@@H]2OS(=O)(=O)O)[C@H](OS(=O)(=O)O)[C@@H](OS(=O)(=O)O)[C@H]1OS(=O)(=O)O [gal →1α,6 glc → 1β,6 gal →1α,6 glc tetradecakis (H-sulfate),] [Gal 1α,6 glc 1β,6 gal 1α,6 glc tetradecakis (H-sulfate), tetradecasodium salt] | +1 Wells | +6 Wells | +9 Wells | 
